Where a name gives a salt, the structure may show the parent alone. Read-outs that look alike come from different tables or passages of the source.
How the values were obtained:
Jarid1A = target: T1, Jarid1A (Homo sapiens, UniProt P29375); assay: Jarid1A in vitro enzyme inhibition assay (TR-FRET); type: biochemical
T1 construct: purchased BPS Bioscience 50110
T1 sequence (P29375 1-1090): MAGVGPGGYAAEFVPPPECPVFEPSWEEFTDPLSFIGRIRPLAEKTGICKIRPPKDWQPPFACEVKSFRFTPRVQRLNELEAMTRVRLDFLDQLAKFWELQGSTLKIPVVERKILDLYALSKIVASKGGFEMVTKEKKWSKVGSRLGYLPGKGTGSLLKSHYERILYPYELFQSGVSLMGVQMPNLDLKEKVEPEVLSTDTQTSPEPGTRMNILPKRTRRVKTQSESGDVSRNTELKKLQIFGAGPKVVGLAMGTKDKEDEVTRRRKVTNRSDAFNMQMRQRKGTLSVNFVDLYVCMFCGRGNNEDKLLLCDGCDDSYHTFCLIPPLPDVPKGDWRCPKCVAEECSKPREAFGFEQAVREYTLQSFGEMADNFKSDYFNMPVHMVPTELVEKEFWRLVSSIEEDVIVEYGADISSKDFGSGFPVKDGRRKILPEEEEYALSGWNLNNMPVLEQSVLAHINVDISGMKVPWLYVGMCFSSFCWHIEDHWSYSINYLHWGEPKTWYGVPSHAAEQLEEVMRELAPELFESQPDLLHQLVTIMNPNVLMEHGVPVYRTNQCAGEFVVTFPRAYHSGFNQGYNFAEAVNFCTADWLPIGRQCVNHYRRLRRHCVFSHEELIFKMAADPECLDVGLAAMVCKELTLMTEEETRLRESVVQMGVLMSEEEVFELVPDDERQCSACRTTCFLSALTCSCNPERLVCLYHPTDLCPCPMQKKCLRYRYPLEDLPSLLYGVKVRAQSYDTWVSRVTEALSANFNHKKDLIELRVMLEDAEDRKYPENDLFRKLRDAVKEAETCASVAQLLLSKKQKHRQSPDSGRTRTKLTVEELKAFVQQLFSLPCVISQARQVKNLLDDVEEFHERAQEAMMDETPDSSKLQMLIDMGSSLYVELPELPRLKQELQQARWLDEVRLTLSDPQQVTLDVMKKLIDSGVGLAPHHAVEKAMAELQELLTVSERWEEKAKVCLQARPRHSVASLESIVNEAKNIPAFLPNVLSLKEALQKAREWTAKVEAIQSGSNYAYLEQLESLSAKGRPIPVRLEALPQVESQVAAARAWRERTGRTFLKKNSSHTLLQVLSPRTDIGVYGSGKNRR
Description: (§1) This assay determines the ability of a test compound to inhibit Jarid1A, Jarid1B, and JMJD2C demethylase activity.
The enzymatic assay of Jarid1A activity is based upon Time Resolved-Fluorescence Resonance Energy Transfer (TR-FRET) detection. […] The assay reaction was initiated by the following: 2 μl of the mixture of 900 nM H3K4me3-biotin labeled peptide and 6 μM alpha-ketoglutaric acid with 2 μl of 11-point serial diluted inhibitor in 3% DMSO was added to each well of plate, followed by the addition of 2 μl of 3 nM Jarid1A to initiate the reaction. The reaction mixture was incubated at room temperature for 30 minutes, and terminated by the addition of 6 μl of 5 mM EDTA in LANCE detection buffer containing 50 nM Phycolink Streptavidin-allophycocyanin and 2 nM Europium-anti-H3K4me1-2 antibody.

JMJD2C = target: T2, JMJD2C (Homo sapiens, UniProt Q9H3R0); assay: JMJD2C in vitro enzyme inhibition assay (TR-FRET); type: biochemical; settings: 0.3 nM JMJD2C, 300 nM H3K9me3-biotin peptide, 2 μM alpha-ketoglutaric acid
T2 sequence (Q9H3R0 2-372): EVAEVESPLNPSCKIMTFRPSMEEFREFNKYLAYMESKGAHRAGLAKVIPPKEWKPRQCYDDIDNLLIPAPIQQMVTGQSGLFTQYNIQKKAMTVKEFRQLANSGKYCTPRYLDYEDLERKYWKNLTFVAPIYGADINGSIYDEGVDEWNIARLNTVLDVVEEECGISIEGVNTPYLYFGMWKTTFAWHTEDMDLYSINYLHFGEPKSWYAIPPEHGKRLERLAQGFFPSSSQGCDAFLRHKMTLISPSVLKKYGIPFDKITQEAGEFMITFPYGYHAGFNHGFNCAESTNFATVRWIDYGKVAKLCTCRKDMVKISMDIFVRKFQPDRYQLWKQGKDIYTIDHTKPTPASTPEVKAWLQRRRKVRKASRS
Description: as §1
Reaction product was determined quantitatively by TR-FRET after the addition of detection reagent Phycolink Streptavidin-allophycocyanin (Prozyme) and Europium-anti-di-methylated histone H3 lysine 9 (H3K9me2) antibody (PerkinElmer) in the presence of 5 mM EDTA in LANCE detection buffer (PerkinElmer) at a final concentration of 50 nM and 1 nM, respectively.
The assay reaction was initiated by the following: 2 μl of the mixture of 900 nM H3K9me3-biotin labeled peptide and 6 μM alpha-ketoglutaric acid with 2 μl of 11-point serial diluted inhibitor in 3% DMSO were added to each well of the plate, followed by the addition of 2 μl of 0.9 nM JMJD2C to initiate the reaction. The reaction mixture was incubated at room temperature for 30 minutes, and terminated by the addition of 6 μl of 5 mM EDTA in LANCE detection buffer containing 100 nM Phycolink Streptavidin-allophycocyanin and 2 nM Europium-anti-H3K9me2 antibody.

Jarid1B = target: T3, Jarid1B (Homo sapiens, UniProt Q9UGL1); assay: Jarid1B in vitro enzyme inhibition assay (TR-FRET); type: biochemical; settings: 0.8 nM Jarid1B, 300 nM H3K4me3-biotin peptide, 2 μM alpha-ketoglutaric acid
T3 sequence (Q9UGL1 2-751): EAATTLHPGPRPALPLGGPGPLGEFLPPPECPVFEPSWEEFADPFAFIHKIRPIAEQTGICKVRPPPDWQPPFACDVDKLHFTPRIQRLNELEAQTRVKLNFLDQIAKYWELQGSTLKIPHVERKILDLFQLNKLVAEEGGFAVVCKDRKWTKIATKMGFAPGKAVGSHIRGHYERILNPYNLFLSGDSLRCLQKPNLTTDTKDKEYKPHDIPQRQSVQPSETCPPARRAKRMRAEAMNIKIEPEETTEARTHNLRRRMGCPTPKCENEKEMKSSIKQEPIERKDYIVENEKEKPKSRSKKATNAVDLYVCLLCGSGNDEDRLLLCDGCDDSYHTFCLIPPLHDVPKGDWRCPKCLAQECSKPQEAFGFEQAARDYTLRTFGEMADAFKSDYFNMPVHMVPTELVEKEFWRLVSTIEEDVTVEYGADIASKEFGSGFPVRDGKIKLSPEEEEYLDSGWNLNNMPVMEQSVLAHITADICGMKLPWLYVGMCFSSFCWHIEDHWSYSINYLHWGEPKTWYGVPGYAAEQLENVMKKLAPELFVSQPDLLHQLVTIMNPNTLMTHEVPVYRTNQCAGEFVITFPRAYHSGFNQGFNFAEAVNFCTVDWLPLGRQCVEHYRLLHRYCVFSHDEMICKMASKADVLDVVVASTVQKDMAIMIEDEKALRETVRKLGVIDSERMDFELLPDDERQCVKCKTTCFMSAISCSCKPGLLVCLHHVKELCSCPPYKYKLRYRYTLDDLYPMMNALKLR
Description: as §1
The reaction mixture was incubated at room temperature for 30 minutes, and terminated by the addition of 6 μl of 5 mM EDTA in LANCE detection buffer containing 50 nM Phycolink Streptavidin-allophycocyanin and 2 nM Europium-anti-H3K4me1-2 antibody.

KDM5A/B = assay: In vitro cell-based assay: tri-methyl H3K4 immuno-blotting in ZR-75-1 breast cancer cells; settings: 72 hours, tri-methyl H3K4, relative IC50, read-out: Cellular IC50
Description: This quantitative immuno-blotting assay measures the amount tri-methylated histone H3 at amino acid Lysine number 4, a specific substrate […] of the direct enzymatic activity of the histone demethylases KDM5A and KDM5B from extracts of the ZR-75-1 breast cancer cell line.
This assay is a fluorometric immunoassay for the quantification of tri-methyl H3K4 extracted from cells treated with test compound and is used as a measure of the cellular inhibition of KDM5A/B.
Extracts were prepared containing all of the cellular histone material using detergent based lysis and sonication methods. These lysates were subsequently normalized for total protein content using a colorimetric bicinchonic acid assay (MicroBCA Pierce/Thermo Scientific). Normalized cell extracts were then subjected to typical immuno-blotting procedures using NuPage reagents (Life Technologies). […] The amount of tri-methylated lysine 4 of histone H3 was detected using an antibody specific to the tri-methylated state (Cell Signaling Technologies) and quantified on an infrared imager using a densitometry software package (Odyssey CLx, Image Studio, Li-Cor). This background subtracted densitometry value was reported as a ration of the GAPDH amount for that sample and then calculated as a percent of the DMSO treated sample. […]

[1] = 1 nM Jarid1A, 300 nM H3K4me3-biotin peptide, 2 μM alpha-ketoglutaric acid

| Structure (SMILES) | IC50 (Jarid1A; [1]) [nM] | IC50 (JMJD2C) [nM] | IC50 (Jarid1B) [nM] | IC50 (Jarid1A) [nM] | IC50 (KDM5A/B) [nM] |
| --- | --- | --- | --- | --- | --- |
| Cn1nc2ccccc2c1Nc1cnccc1C(=O)O [Example 2, 3-[(2-methyl-2H-indazol-3-yl)amino]pyridine-4-carboxylic acid] | 1000 to 10000 | 100 to 1000 | 1000 to 10000 |  |  |
| CN(C)CCCCCn1nc(Nc2cnccc2C(=O)O)c2cc(F)ccc21 [Example 22] |  | 100 to 1000 | < 100 | < 100 |  |
| O=C(O)c1ccncc1Nc1nn(Cc2ccccc2)c2ccc(F)cc12 [Example 24, 3-[(1-benzyl-5-fluoro-1H-indazol-3-yl)amino]pyridine-4-carboxylic acid] | < 100 | 100 to 1000 | < 100 |  | > 10000 |
| CNCCCCCn1nc(Nc2cnccc2C(=O)O)c2cc(F)ccc21 [Example 46, 3-({5-fluoro-1-[5-(methylamino)pentyl]-1H-indazol-3-yl}amino)pyridine-4-carboxylic acid, trifluoroacetic acid salt] | < 100 | < 100 | < 100 |  |  |
| CN(C)CC#CCn1nc(Nc2cnccc2C(=O)O)c2cc(F)ccc21 [Example 49, 3-({1-[4-(dimethylamino)but-2-yn-1-yl]-5-fluoro-1H-indazol-3-yl}amino)pyridine-4-carboxylic acid, trifluoroacetic acid salt] | < 100 | < 100 | < 100 |  |  |
| O=C(O)c1ccncc1Nc1nn(C2CCC(F)(F)CC2)c2ccc(F)cc12 [Example 64, 3-{[1-(4,4-difluorocyclohexyl)-5-fluoro-1H-indazol-3-yl]amino}pyridine-4-carboxylic acid] | 1000 to 10000 | 1000 to 10000 | 1000 to 10000 |  |  |
